Source: patent US5017584A, “Antidepressant 2-(4,5-dihydro-1H-imidazolyl)-dihydro-1H-indoles, -1,2,3,4-tetrahydroquinolines and -1H-indoles, and methods of use thereas” (Sterling Drug Inc., priority 1985, dated 1991)
Where “and” joins values, the source holds several entries; their conditions need not be identical. Equal values may be shown once. Read-outs that look alike come from different tables or passages of the source.

How the values were obtained:
[1] = target: T1, isolated, electrically stimulated rat vas deferens (Rattus norvegicus, UniProt P22909); test: Vas Deferens Assay: antagonism of clonidine-induced inhibition of twitch height in isolated, electrically stimulated rat vas deferens; conditions: for inhibition at 0.5 µM: 500 nM; for Twitch height: reversal by yohimbine
T1 construct: isolated, electrically stimulated rat vas deferens; from tissue; host or cells: isolated rat vas deferens
T1 sequence (P22909 1-465): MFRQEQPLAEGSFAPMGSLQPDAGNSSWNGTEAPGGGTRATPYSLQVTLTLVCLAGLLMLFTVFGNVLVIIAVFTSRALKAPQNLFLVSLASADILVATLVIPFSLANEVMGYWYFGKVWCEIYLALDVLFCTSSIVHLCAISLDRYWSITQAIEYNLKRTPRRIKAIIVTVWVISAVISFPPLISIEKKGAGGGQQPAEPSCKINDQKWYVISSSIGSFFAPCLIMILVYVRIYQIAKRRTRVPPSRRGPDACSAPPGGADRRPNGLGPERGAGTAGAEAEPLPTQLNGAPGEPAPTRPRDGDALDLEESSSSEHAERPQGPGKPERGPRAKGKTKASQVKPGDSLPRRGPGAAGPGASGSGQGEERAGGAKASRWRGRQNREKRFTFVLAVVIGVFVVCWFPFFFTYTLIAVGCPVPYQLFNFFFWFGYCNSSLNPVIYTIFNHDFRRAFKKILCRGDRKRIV
Protocol: (§1) The α2 -adrenergic antagonist activity of the compounds of the invention was determined by three screening methods, described as follows:
Results are expressed either in terms of percent inhibition at the concentration of antagonist used or as pA2 values, determined by the Schild method; cf. Tallarida and Murray, Manual of Pharmacologic Calculations, pp. 29-32 (Springer-Verlag, 1981). The pA2 value is the negative logarithms of the concentration of antagonist required to cause a two-fold shift in the dose response curve to clonidine-induced inhibition of twitch height.

mice = test: In Vivo Antagonism of Clonidine-Induced Anti-Nociception (phenyl-p-quinone writhing); conditions: Mus musculus; for responders at 3 mg/kg: 3 mg/kg s.c.; for ED50: read-out: ED50, Antagonism of Clonidine Analgesia
Protocol: as §1
In Vivo Antagonism of Clonidine-Induced Anti-Nociception
The intraperitoneal administration of phenyl-p-quinone (PPQ) to mice elicits a nociceptive response which consists of abdominal writhing and extension of the hind limbs. This writhing response is prevented in mice pretreated with clonidine. […] To groups of thirty male mice for each experiment, the test compound dissolved in 0.9% sodium chloride was administered either subcutaneously or orally. […] The number of mice that writhed at least three times during the five minute observation period was counted. The number of mice that writhed was scored for each dose of antagonist, and the percentage reversal of clonidine-induced anti-nociception (analgesia) was calculated by dividing the number of animals writhing by the total number of test animals and multiplying the quotient by 100. The results are also expressed as an ED50, the effective dose (in mg./kg.) in 50% of the animals to effect antagonism of clonidine-induced analgesia.

α2-adrenergic receptor = target: T2, α2-adrenergic receptor (Rattus norvegicus, UniProt P22909); test: Tritiated Clonidine Receptor Binding Assay (inhibition of 3H-clonidine binding to rat cerebral cortex membranes); conditions: for Ki: 0.4 nM 3H-clonidine, rat cerebral cortex membranes; for inhibition at 1 µM: read-out: % I, Clonidine [3H] Binding, 1000 nM
T2 construct: Homogenates of rat cerebral cortex; from tissue; host or cells: rat cerebral cortex homogenate (membranes)
T2 sequence (P22909 1-465): T1 sequence (P22909 1-465)
Protocol: as §1
The results are expressed either in terms of percent inhibition at the concentration of antagonist used or as Ki values.

[2] = cited from earlier work
[3] = phenylquinone writing test; cited from earlier work
[4] = sc, read-out: % A, Antagonism of Clonidine Analgesia, 1 mg/kg s.c.
[5] = sc, read-out: % A, Antagonism of Clonidine Analgesia
[6] = sc, read-out: % A, Antagonism of Clonidine Analgesia, 10 mg/kg s.c.
[7] = rat, 100 nM, read-out: % A, rat vas deferens
[8] = rat, read-out: % A, rat vas deferens
[9] = po, read-out: % A, Antagonism of Clonidine Analgesia, 10 mg/kg p.o.
[10] = po, read-out: % A, Antagonism of Clonidine Analgesia, 30 mg/kg p.o.
[11] = rat, read-out: % A, rat vas deferens, 100 nM
[12] = sc, read-out: % A, Antagonism of Clonidine Analgesia, 30 mg/kg s.c.
[13] = read-out: pA2, rat vas deferens (converted)

C=C1c2ccccc2N(C)C1(C)C1=NCCN1 (centres unmarked) [Example 1AF]
fold shift of clonidine ([1]; 10 μm): 23.9 fold

C[C@@H]1c2ccccc2N(C)[C@@H]1C1=NCCN1 (relative stereo) [Example 1Z]
agonist activity, rat vas deferens ([1]; as agonist): active
antagonist activity, rat vas deferens ([1]; as antagonist): Inac.
responders at 0.1 mg/kg (mice; sc, read-out: % A, Antagonism of Clonidine Analgesia, 0.1 mg/kg s.c.): 80%
responders at 0.3 mg/kg (mice; sc, read-out: % A, Antagonism of Clonidine Analgesia, 0.3 mg/kg s.c.): 70%
responders at 1 mg/kg (mice; [4]): 30%
responders at 3 mg/kg (mice; [5]): 0%
responders at 10 mg/kg (mice; [6]): 0%

CN1c2ccccc2CC1(C)C1=NCCN1 (centres unmarked) [Example 1F]
Kb [1]: 28.2 nM
Ki (α2-adrenergic receptor): 3.39 nM
ED50 (mice; po, p.o.): 8.8 mg/kg

CC1c2ccccc2N(C)C1CC1=NCCN1 (centres unmarked) [Example 1AE]
fold shift of clonidine ([1]; 20 μm): 15 fold

COCC1(C2=NCCN2)Cc2ccccc2N1C (centres unmarked) [Example 1AA]
% A, rat vas deferens ([1]; 100 nM, 0.1 µM): 7%
inhibition at 0.1 µM [1, 7]: 6%
inhibition at 0.5 µM [1, 8]: 52%
inhibition at 0.5 µM ([1]; rat, read-out: reduced twitch height): 67%
% I, Clonidine [3H] Binding (α2-adrenergic receptor; concentration not given): 43.5%
responders at 1 mg/kg (mice; po, read-out: % A, Antagonism of Clonidine Analgesia, 1 mg/kg p.o.): 0%
responders at 10 mg/kg (mice; [9]): 10%
responders at 30 mg/kg (mice; [10]): 70%
ED50 (mice; po, p.o.): 21.8 mg/kg
ED50 (mice; sc, s.c.): 2.6 mg/kg

CN1c2c(Cl)cccc2CC1C1=NCCN1 (centres unmarked) [Example 1K]
Kb [1]: 1.58 nM
responders at 0.03 mg/kg (mice; sc, read-out: % A, Antagonism of Clonidine Analgesia, 0.03 mg/kg s.c.): 70%
responders at 1 mg/kg (mice; [4]): 100%
responders at 3 mg/kg (mice; [5]): 100%
responders at 10 mg/kg (mice; [6]): 100%

COc1c(C2=NCCN2)n(C)c2ccccc12 [Example 1AG]
fold shift of clonidine ([1]; 10 μm): 3.9 fold

CCOCCN1c2ccccc2CC1C1=NCCN1 (centres unmarked) [Example 1N]
Kb [1]: 15.5 nM
ED50 (mice; po, p.o.): 26.5 mg/kg

CN1c2ccc(F)cc2CC1C1=NCCN1 (centres unmarked) [Example 1A, 2-(4,5-dihydro-1H-imidazol-2-yl)-5-fluoro-2,3-dihydro-1-methyl-1H-indole]
Kb [1]: 3.55 nM
Ki (α2-adrenergic receptor): 0.92 nM
ED50 (mice; po, p.o.): 0.75 mg/kg
ED50 (mice; sc, s.c.): 0.0071 mg/kg

Cn1c(C2=NCCN2)cc2ccccc21 [Example 1Y]
inhibition at 0.1 µM [1, 11]: 3%
inhibition at 1 µM (α2-adrenergic receptor): 32.5%

C=CCN1c2ccccc2CC1C1=NCCN1 (centres unmarked) [Example 1M]
Kb [1]: 0.851 nM
ED50 (mice; po, p.o.): 2.6 mg/kg

CN1c2ccccc2CC1CC1=NCCN1 (centres unmarked) [Example 1G]
Ki (α2-adrenergic receptor): 355 nM
responders at 30 mg/kg (mice; [12]): 0%

CCN1CCN=C1C1C(C)c2ccccc2N1C (centres unmarked) [Example 1AD]
fold shift of clonidine ([1]; 20 μm): 3.5 fold

CN1c2ccc(Cl)cc2CC1C1=NCCN1 (centres unmarked) [Example 1H]
Kb [1]: 2.75 nM
ED50 (mice; po, p.o.): 1.5 mg/kg

c1ccc2c(c1)CC(C1=NCCN1)N2 (centres unmarked) [Example 1O]
Kb [1]: 6.92 nM
ED50 (mice; po, p.o.): 1.8 mg/kg

CCCN1c2ccccc2CC1C1=NCCN1 (centres unmarked) [Example 1J]
Kb [1]: 1.74 nM

c1ccc(C2CC(C3=NCCN3)Nc3ccccc32)cc1 (centres unmarked) [Example 1W]
% A, rat vas deferens ([1]; 0.1 nM, 0.0001 µM): 3%
% A, rat vas deferens ([1]; 1 nM, 0.001 µM): 0% and 1%
inhibition at 0.0001 µM ([1]; rat, 0.1 nM): 2%
inhibition at 1 µM (α2-adrenergic receptor): 44.6%

Cn1c(CC2=NCCN2)cc2ccccc21 [Example 1X]
Kb [1]: 33.1 nM
responders at 10 mg/kg (mice; [9]): 0%
responders at 30 mg/kg (mice; [10]): 10%
responders at 100 mg/kg (mice; po, read-out: % A, Antagonism of Clonidine Analgesia, 100 mg/kg p.o.): 50%
responders at 10 mg/kg (mice; [6]): 50%
responders at 30 mg/kg (mice; [12]): 60%
responders at 100 mg/kg (mice; sc, read-out: % A, Antagonism of Clonidine Analgesia, 100 mg/kg s.c.): 50%

C[C@H]1c2ccccc2N(C)[C@@H]1C1=NCCN1 (relative stereo) [Example 1T]
Kb [1]: 110 nM
ED50 (mice; po, p.o.): 41 mg/kg

CCN1c2ccccc2CC1C1=NCCN1 (centres unmarked) [Example 1C]
Kb [1]: 1.23 nM
Ki (α2-adrenergic receptor): 0.91 nM
ED50 (mice; po, p.o.): 0.098 mg/kg
ED50 (mice; sc, s.c.): 0.034 mg/kg

CCCCN1c2ccccc2CC1C1=NCCN1 (centres unmarked) [Example 1L]
Kb [1]: 1.58 nM
responders at 3 mg/kg (mice; [5]): 20%
responders at 5.5 mg/kg (mice; sc, read-out: % A, Antagonism of Clonidine Analgesia, 5.5 mg/kg s.c.): 100%
responders at 10 mg/kg (mice; [6]): 100%

C=CCC1(C2=NCCN2)Cc2ccccc2N1C (centres unmarked) [Example 1D]
Kb [1, 13]: 110 nM
inhibition at 1 µM (α2-adrenergic receptor): 85%
ED50 (mice; po, p.o.): 11.1 mg/kg

CN1c2ccccc2CCC1C1=NCCN1 (centres unmarked) [Example 1V]
Kb [1]: 7.41 nM
ED50 (mice; po, p.o.): 2.6 mg/kg

c1ccc(CCN2c3ccccc3CC2C2=NCCN2)cc1 (centres unmarked) [Example 1Q]
inhibition at 0.1 µM [1, 7]: 81%
inhibition at 0.5 µM [1, 8]: 94%

CC(C)N(CC1(C2=NCCN2)Cc2ccccc2N1C)C(C)C (centres unmarked) [Example 1AC]
Twitch height [1]: reversed by yohimbine
responders at 10 mg/kg (mice; [9]): 50%
responders at 30 mg/kg (mice; [10]): 50%

CSCC1(C2=NCCN2)Cc2ccccc2N1C (centres unmarked) [Example 1AB]
Twitch height [1]: reversed by yohimbine
responders at 10 mg/kg (mice; [9]): 0%
responders at 30 mg/kg (mice; [10]): 90%

CN1c2ccc(Cc3ccccc3)cc2CC1C1=NCCN1 (centres unmarked) [Example 1P]
Kb [1, 13]: 25.7 nM
ED50 (mice; sc, s.c.): 11.3 mg/kg

c1ccc2c(c1)CCC(C1=NCCN1)N2 (centres unmarked) [Example 1U]
Kb [1]: 9.33 nM
ED50 (mice; po, p.o.): 3.8 mg/kg

c1ccc(CN2c3ccccc3CC2C2=NCCN2)cc1 (centres unmarked) [Example 1E]
Kb [1, 13]: 11.7 nM
Ki (α2-adrenergic receptor): 2.3 nM
ED50 (mice; po, p.o.): 0.051 mg/kg
ED50 (mice; sc, s.c.): 0.18 mg/kg

CN1c2ccccc2CC1C1=NCCN1 (centres unmarked) [Example 1B]
Kb [1]: 3.31 nM
Ki (α2-adrenergic receptor): 0.46 nM
ED50 (mice; sc, s.c.): 12 mg/kg

CN1c2c(Cl)cc(Cl)cc2CC1C1=NCCN1 (centres unmarked) [Example 1S]
Kb [1]: 10 nM
ED50 (mice; po, p.o.): 60.1 mg/kg

c1ccc2c(c1)CCN2C1=NCCN1 [1-(4,5-dihydro-1H-imidazol-2-yl)-2,3-dihydro-1H-indole]
analeptic activity, antagonism of chloral hydrate ([2]; chloral hydrate): inactive
analeptic activity, antagonism of pentobarbital ([2]; pentobarbital): active
analgesic activity [3]: active

c1ccc(N2c3ccccc3CC2C2=NCCN2)cc1 (centres unmarked) [Example 1R]
inhibition at 0.1 µM [1, 11]: 100%
ED50 (mice; po, p.o.): 19.8 mg/kg
